Results published in the NIST ThermoML archive (doi:10.1016/j.jct.2007.01.017).

Experiments:
[1] = Liquid; for mass density: 298.15 K, 101.33 kPa; for vapor or sublimation pressure: 313.15 K
[2] = excess molar enthalpy (molar enthalpy of mixing); xn = mol fraction of the nth substance listed; details: 101 kPa, Liquid, Flow calorimetry

CCCCCl [1-chlorobutane]
[1]
Details | mass density [kg/m3] | vapor or sublimation pressure [kPa]
– | 880.72 | 25.72

CCCCCl [1-chlorobutane] + CC(=O)N(C)C
[2]
Details | excess molar enthalpy [kcal/mol]
298.15 K, x2 = 0.06 | 0.0163
298.15 K, x2 = 0.111 | 0.0337
298.15 K, x2 = 0.212 | 0.0583
298.15 K, x2 = 0.312 | 0.0748
298.15 K, x2 = 0.412 | 0.0846
298.15 K, x2 = 0.511 | 0.0868
298.15 K, x2 = 0.61 | 0.0832
298.15 K, x2 = 0.708 | 0.0729
298.15 K, x2 = 0.805 | 0.0559
298.15 K, x2 = 0.902 | 0.0311
298.15 K, x2 = 0.95 | 0.0165
308.15 K, x2 = 0.057 | 0.0163
308.15 K, x2 = 0.106 | 0.0335
308.15 K, x2 = 0.206 | 0.0588
308.15 K, x2 = 0.305 | 0.076
308.15 K, x2 = 0.404 | 0.0865
308.15 K, x2 = 0.503 | 0.0896
308.15 K, x2 = 0.602 | 0.0863
308.15 K, x2 = 0.7 | 0.0758
308.15 K, x2 = 0.799 | 0.0581
308.15 K, x2 = 0.897 | 0.0332
308.15 K, x2 = 0.946 | 0.0172
308.15 K, x2 = 0.966 | 0.0098

CCCCCl [1-chlorobutane] + CN(C)C=O
excess molar enthalpy [kcal/mol], [2]
Details | 298.15 K | 308.15 K
x2 = 0.056 | 0.0294 | –
x2 = 0.058 | – | 0.028
x2 = 0.106 | 0.0571 | –
x2 = 0.108 | – | 0.0552
x2 = 0.207 | 0.0966 | 0.0956
x2 = 0.306 | – | 0.121
x2 = 0.308 | 0.122 | –
x2 = 0.404 | – | 0.136
x2 = 0.407 | 0.135 | –
x2 = 0.503 | – | 0.139
x2 = 0.507 | 0.136 | –
x2 = 0.602 | – | 0.132
x2 = 0.606 | 0.129 | –
x2 = 0.701 | – | 0.115
x2 = 0.705 | 0.112 | –
x2 = 0.799 | – | 0.087
x2 = 0.803 | 0.0841 | –
x2 = 0.898 | – | 0.048
x2 = 0.901 | 0.0459 | –
x2 = 0.947 | – | 0.0246
x2 = 0.95 | 0.0234 | –
x2 = 0.967 | – | 0.0146

CCCCCCCl [1-chlorohexane]
[1]
Details | mass density [kg/m3] | vapor or sublimation pressure [kPa]
– | 873.21 | 2.857

CCCCCCCl [1-chlorohexane] + CC(=O)N(C)C
excess molar enthalpy [kcal/mol], [2]
Details | 298.15 K | 308.15 K
x2 = 0.059 | – | 0.0253
x2 = 0.064 | 0.0251 | –
x2 = 0.108 | – | 0.0488
x2 = 0.113 | 0.0476 | –
x2 = 0.206 | – | 0.0935
x2 = 0.211 | 0.0908 | –
x2 = 0.304 | – | 0.124
x2 = 0.309 | 0.119 | –
x2 = 0.402 | – | 0.144
x2 = 0.407 | 0.137 | –
x2 = 0.501 | – | 0.153
x2 = 0.505 | 0.1458 | –
x2 = 0.6 | – | 0.151
x2 = 0.603 | 0.143 | –
x2 = 0.698 | – | 0.136
x2 = 0.701 | 0.129 | –
x2 = 0.798 | 0.102 | 0.108
x2 = 0.896 | 0.0588 | –
x2 = 0.897 | – | 0.0626
x2 = 0.945 | 0.0315 | –
x2 = 0.947 | – | 0.0335
x2 = 0.967 | – | 0.0201
